Reference: ChEMBL document CHEMBL1201862, “PubChem BioAssay data set” (2004)
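Following 48 hours of exposure in 96-well plates, responses at five concentrations were used to interpolate endpoints linearly. GI50 marks 50% less growth.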 Active and inactive are the calls of the source. No stated cut-off is given here; in the data, active = GI50 up to about 1.1 µM and inactive = higher.

Key:
Assay in all cases: growth of human tumour cells (NCI), 48 h
DMS-114 = test system: DMS-114
XF498 = test system: XF498
KM-20L2 = test system: KM-20L2
SNB-78 = test system: SNB-78
HOP-18 = test system: HOP-18
DMS-273 = test system: DMS-273
DLD-1 = test system: DLD-1
RXF 631 = test system: RXF 631

Measured: GI50

COc1cc2c(cc1OCc1ccccc1)CNCC2
inactive: DMS-114 > 100 µM | XF498 > 100 µM | KM-20L2 > 100 µM | SNB-78 > 100 µM | HOP-18 > 100 µM | DMS-273 > 100 µM | DLD-1 > 100 µM | RXF 631 > 100 µM

COC(=O)c1nc(-c2ccc(Cl)c(Cl)c2)nc2ccccc12
inactive: DMS-114 19.8 µM | XF498 6.81 µM | KM-20L2 > 100 µM | SNB-78 34.4 µM | HOP-18 2.01 µM | DMS-273 26.2 µM | DLD-1 > 25.2 µM | RXF 631 > 67.6 µM

CC1=C(C(=O)Nc2ccccc2C)C(c2ccco2)C(C(=O)Nc2ccccc2C)=C(C)N1C
inactive: DMS-114 > 100 µM | XF498 > 100 µM | SNB-78 > 100 µM | HOP-18 > 100 µM | DLD-1 > 100 µM | RXF 631 81.5 µM

Cc1cc(Cl)ccc1NC(=O)C1C(=O)N(c2ccc(Cl)cc2C)C(=O)/C1=N\NC(N)=S (stereo unspecified)
inactive: DMS-114 31.6 µM | KM-20L2 20.7 µM | SNB-78 44 µM | HOP-18 16.8 µM | DMS-273 46.3 µM | DLD-1 35.3 µM | RXF 631 45.6 µM

C=CCCCN1CCCCC1=S
inactive: DMS-114 > 100 µM | XF498 > 100 µM | KM-20L2 > 100 µM | HOP-18 > 100 µM | DMS-273 > 100 µM | DLD-1 > 100 µM | RXF 631 > 100 µM
